Where a name gives a salt, the structure may show the parent alone. Read-outs that look alike come from different tables or passages of the source.
Legend:
primary rat microglia [1] = experiment: Cell toxicity (dead cells, size <150 μm2) in LPS assay
[2] = tested on: fibrin-induced microglia activation; experiment: Image-based assay of fibrin-induced microglia activation (HTS and dose response); type: cell-based, rat; details: for inhibition at 10 µM: Rattus norvegicus, Microglia, read-out: Fibrin % inhibition
[3] = tested on: fibrin- and LPS-induced microglia activation; experiment: cells; type: cell-based, rat
primary rat microglia [4] = experiment: Cell toxicity (dead cells, size <150 μm2) in coated fibrin (cFib) assay;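 note: share of dead cells sized under 150 µm2 at 10 µM in fibrin-stimulated microglia HTS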
[5] = tested on: LPS-induced microglia activation; experiment: Image-based assay of LPS-induced microglia activation (HTS and dose response); type: cell-based, rat; details: for inhibition at 10 µM: Rattus norvegicus, Microglia, read-out: LPS % inhibition
[6] = primary microglia HTS, LPS stimulation, toxicity = cell size <150 μm2
[7] = primary microglia HTS, fibrin stimulation, activation = cell size >800 μm2
[8] = quadrant by fibrin and LPS inhibition in HTS of 1907 compounds
[9] = primary microglia HTS, fibrin stimulation, toxicity = cell size <150 μm2
[10] = primary HTS, 10 μM, LPS assay, dead cells size <150 μm2
[11] = primary HTS, 10 μM, fibrin-stimulated primary microglia
[12] = primary HTS, 10 μM, fibrin assay, dead cells size <150 μm2
[13] = primary HTS, 10 μM, LPS-stimulated primary microglia
[14] = primary microglia HTS, 10 μM, LPS assay, cell size <150 μm^2 as marker of toxicity
[15] = primary microglia HTS, 10 μM, fibrin-stimulated, cell size >800 μm^2 as marker of activation
[16] = HTS of 1907 compounds, quadrant by fibrin and LPS inhibition
[17] = primary microglia HTS, 10 μM, fibrin assay, cell size <150 μm^2 as marker of toxicity
[18] = primary microglia HTS, 10 μM, LPS-stimulated, cell size >800 μm^2 as marker of activation
[19] = 48 h, primary microglia HTS, LPS stimulation, activation = cell size >800 μm2
[20] = primary microglia HTS, LPS stimulation, decreased size (<150 μm^2) as marker of toxicity
[21] = primary microglia HTS, fibrin stimulation, increased cell size (>800 μm^2) as marker of activation
[22] = primary microglia HTS, fibrin stimulation, decreased size (<150 μm^2) as marker of toxicity
[23] = 48 h, primary microglia HTS, LPS stimulation, increased cell size (>800 μm^2) as marker of activation

Compound: CC(=O)O[C@H]1C[C@H](O[C@H]2[C@@H](O)C[C@H](O[C@H]3[C@@H](O)C[C@H](O[C@H]4CC[C@@]5(C)[C@H](CC[C@@H]6[C@@H]5C[C@@H](O)[C@]5(C)[C@@H](C7=CC(=O)OC7)CC[C@]65O)C4)O[C@@H]3C)O[C@@H]2C)O[C@H](C)[C@H]1O[C@@H]1O[C@H](CO)[C@@H](O)[C@H](O)[C@H]1O [Lanatoside C]
- LPS % cell toxicity (primary rat microglia [1]; [6]): 1%
- Fibrin % inhibition [2, 7]: 17%
- Quadrant (FIG. 5b) [3, 8]: Q4
- Fibrin % cell toxicity (primary rat microglia [4]; [9]): 1%
- LPS % inhibition ([5]; primary microglia HTS, LPS stimulation, activation = cell size >800 μm2): 35%

Compound: NC(=O)OCC(O)COc1ccc(Cl)cc1 (stereo not shown) [Chlorphenesin Carbamate]
- LPS % cell toxicity (primary rat microglia [1]; [10]): 0%
- inhibition at 10 µM [2, 11]: -41%
- Quadrant (FIG. 5b) ([3]; primary HTS, 10 μM): Q4
- Fibrin % cell toxicity (primary rat microglia [4]; [12]): 1%
- inhibition at 10 µM [5, 13]: -4%

Compound: CN1CCN(C(=O)OC2c3nccnc3C(=O)N2c2ccc(Cl)cn2)CC1 (stereo not shown) [Zopiclone]
- LPS % cell toxicity (primary rat microglia [1]; [14]): 0%
- inhibition at 10 µM [2, 15]: 11%
- Quadrant (FIG. 5b) [3, 16]: Q4
- Fibrin % cell toxicity (primary rat microglia [4]; [17]): 1%
- inhibition at 10 µM [5, 18]: 5%

Compound: Oc1cc(O)c2c(c1)O[C@H](c1ccc(O)c(O)c1)[C@@H](O)C2 [Cianidanol]
- LPS % cell toxicity (primary rat microglia [1]; [10]): 0%
- inhibition at 10 µM [2, 11]: -19%
- Quadrant (FIG. 5b) ([3]; primary HTS, 10 μM): Q4
- Fibrin % cell toxicity (primary rat microglia [4]; [12]): 0%
- inhibition at 10 µM [5, 13]: 7%

Compound: C=COCC(F)(F)F [Fluroxene]
- LPS % cell toxicity (primary rat microglia [1]; [6]): 0%
- inhibition at 10 µM [2, 7]: -19%
- Quadrant (FIG. 5b) [3, 8]: Q4
- Fibrin % cell toxicity (primary rat microglia [4]; [9]): 0%
- inhibition at 10 µM [5, 19]: 11%

Compound: CCCCCC(C)N (stereo not shown) [Tuaminoheptane Sulfate]
- LPS % cell toxicity (primary rat microglia [1]; [14]): 0%
- inhibition at 10 µM [2, 15]: -7%
- Quadrant (FIG. 5b) [3, 16]: Q4
- Fibrin % cell toxicity (primary rat microglia [4]; [17]): 1%
- inhibition at 10 µM [5, 18]: 19%

Compound: COc1cc(OC)c(C(=O)CCCN2CCCC2)c(OC)c1 [Buflomedil, Buflomedil Hydrochloride]
- LPS % cell toxicity (primary rat microglia [1]; [10]): 1%
- Fibrin % inhibition [2, 11]: −37%
- Quadrant (FIG. 5b) ([3]; primary HTS, 10 μM): Q4
- Fibrin % cell toxicity (primary rat microglia [4]; [12]): 1%
- LPS % inhibition [5, 13]: 13%

Compound: CC1(C)O[C@@H]2[C@@H](CO[C@@]3(COS(N)(=O)=O)OC(C)(C)O[C@@H]23)O1 [Topiramate]
- LPS % cell toxicity (primary rat microglia [1]; [14]): 0%
- inhibition at 10 µM [2, 15]: 4%
- Quadrant (FIG. 5b) [3, 16]: Q4
- Fibrin % cell toxicity (primary rat microglia [4]; [17]): 1%
- inhibition at 10 µM [5, 18]: 5%

Compound: CC(=O)OCC(=O)[C@@]1(O)[C@@H](C)C[C@H]2[C@@H]3CCC4=CC(=O)C=C[C@]4(C)[C@@]3(F)[C@@H](O)C[C@@]21C [Betamethasone Acetate]
- LPS % cell toxicity (primary rat microglia [1]; [20]): 4%
- inhibition at 10 µM [2, 21]: 107%
- Quadrant (FIG. 5b) [3, 8]: Q2
- Fibrin % cell toxicity (primary rat microglia [4]; [22]): 3%
- inhibition at 10 µM [5, 23]: 100%

Compound: CCN(C(C)=O)c1cccc(-c2ccnc3c(C#N)cnn23)c1 [Zaleplon]
- LPS % cell toxicity (primary rat microglia [1]; [14]): 0%
- inhibition at 10 µM [2, 15]: 16%
- Quadrant (FIG. 5b) [3, 16]: Q4
- Fibrin % cell toxicity (primary rat microglia [4]; [17]): 1%
- inhibition at 10 µM [5, 18]: 13%

Compound: CCCCCCc1ccc(O)cc1O [Hexylresorcinol]
- LPS % cell toxicity (primary rat microglia [1]; [6]): 0%
- inhibition at 10 µM [2, 7]: -6%
- Quadrant (FIG. 5b) [3, 8]: Q4
- Fibrin % cell toxicity (primary rat microglia [4]; [9]): 1%
- inhibition at 10 µM [5, 19]: 18%

Compound: Cl.N[C@H]1C(O)O[C@H](CO)[C@@H](O)[C@@H]1O (stereo partly shown) [Glucosamine Hydrochloride]
- LPS % cell toxicity (primary rat microglia [1]; [6]): 0%
- inhibition at 10 µM [2, 7]: -2%
- Quadrant (FIG. 5b) [3, 8]: Q4
- Fibrin % cell toxicity (primary rat microglia [4]; [9]): 1%
- inhibition at 10 µM [5, 19]: 19%

Compound: CC(C)COC(=O)c1ccc(N)cc1 [Isobutamben]
- LPS % cell toxicity (primary rat microglia [1]; [6]): 0%
- inhibition at 10 µM [2, 7]: -5%
- Quadrant (FIG. 5b) [3, 8]: Q4
- Fibrin % cell toxicity (primary rat microglia [4]; [9]): 1%
- inhibition at 10 µM [5, 19]: -1%

Compound: CN1C(CCl)Nc2cc(Cl)c(S(N)(=O)=O)cc2S1(=O)=O (stereo not shown) [Methyclothiazide]
- LPS % cell toxicity (primary rat microglia [1]; [20]): 0%
- inhibition at 10 µM [2, 21]: 25%
- Quadrant (FIG. 5b) [3, 8]: Q4
- Fibrin % cell toxicity (primary rat microglia [4]; [22]): 1%
- inhibition at 10 µM [5, 23]: 17%

Compound: Nc1ncnc2c1ncn2[C@@H]1O[C@H](CO)[C@@H](O)[C@@H]1O [Vidarabine]
- LPS % cell toxicity (primary rat microglia [1]; [14]): 0%
- inhibition at 10 µM [2, 15]: -3%
- Quadrant (FIG. 5b) [3, 16]: Q4
- Fibrin % cell toxicity (primary rat microglia [4]; [17]): 1%
- inhibition at 10 µM [5, 18]: 14%

Compound: COc1cccc(OC)c1C(=O)N[C@@H]1C(=O)N2[C@@H]1SC(C)(C)[C@@H]2C(=O)O [Meticillin]
- LPS % cell toxicity (primary rat microglia [1]; [20]): 0%
- inhibition at 10 µM [2, 21]: -19%
- Quadrant (FIG. 5b) [3, 8]: Q4
- Fibrin % cell toxicity (primary rat microglia [4]; [22]): 0%
- inhibition at 10 µM [5, 23]: 18%

Compound: Nc1ccn([C@@H]2O[C@H](CO)[C@@H](O)C2(F)F)c(=O)n1 [Gemcitabine]
- LPS % cell toxicity (primary rat microglia [1]; [6]): 0%
- inhibition at 10 µM [2, 7]: -31%
- Quadrant (FIG. 5b) [3, 8]: Q4
- Fibrin % cell toxicity (primary rat microglia [4]; [9]): 1%
- inhibition at 10 µM [5, 19]: 0%

Compound: CNCC(O)c1ccc(O)cc1 (stereo not shown) [Synephrine]
- LPS % cell toxicity (primary rat microglia [1]; [14]): 0%
- inhibition at 10 µM [2, 15]: -16%
- Quadrant (FIG. 5b) [3, 16]: Q4
- Fibrin % cell toxicity (primary rat microglia [4]; [17]): 0%
- inhibition at 10 µM [5, 18]: 12%

Compound: CN(Cc1ccc(C(C)(C)C)cc1)Cc1cccc2ccccc12 [Butenafine]
- LPS % cell toxicity (primary rat microglia [1]; [10]): 0%
- inhibition at 10 µM [2, 11]: -4%
- Quadrant (FIG. 5b) ([3]; primary HTS, 10 μM): Q4
- Fibrin % cell toxicity (primary rat microglia [4]; [12]): 1%
- inhibition at 10 µM [5, 13]: -8%

Compound: COc1ccc(Cc2nccc3cc(OC)c(OC)cc23)cc1OC [Papaverine]
- LPS % cell toxicity (primary rat microglia [1]; [20]): 0%
- inhibition at 10 µM [2, 21]: 12%
- Quadrant (FIG. 5b) [3, 8]: Q4
- Fibrin % cell toxicity (primary rat microglia [4]; [22]): 0%
- inhibition at 10 µM [5, 23]: 27%

Compound: COP(=O)(OC)C(O)C(Cl)(Cl)Cl (stereo not shown) [Metrifonate]
- LPS % cell toxicity (primary rat microglia [1]; [20]): 0%
- inhibition at 10 µM [2, 21]: -34%
- Quadrant (FIG. 5b) [3, 8]: Q4
- Fibrin % cell toxicity (primary rat microglia [4]; [22]): 0%
- inhibition at 10 µM [5, 23]: 8%

Compound: Cc1ccnc2c1NC(=O)c1cccnc1N2C1CC1 [Nevirapine]
- LPS % cell toxicity (primary rat microglia [1]; [20]): 0%
- inhibition at 10 µM [2, 21]: 3%
- Quadrant (FIG. 5b) [3, 8]: Q4
- Fibrin % cell toxicity (primary rat microglia [4]; [22]): 0%
- inhibition at 10 µM [5, 23]: 15%

Compound: O=c1oc2cc(O)ccc2s1 [Thioxolone, Tioxolone]
- LPS % cell toxicity (primary rat microglia [1]; [14]): 0%
- Fibrin % inhibition [2, 15]: −18%
- Quadrant (FIG. 5b) [3, 16]: Q4
- Fibrin % cell toxicity (primary rat microglia [4]; [17]): 0%
- LPS % inhibition [5, 18]: 12%

Compound: CCCCN1CCCC[C@H]1C(=O)Nc1c(C)cccc1C [Levobupivacaine]
- LPS % cell toxicity (primary rat microglia [1]; [6]): 0%
- inhibition at 10 µM [2, 7]: 34%
- Quadrant (FIG. 5b) [3, 8]: Q4
- Fibrin % cell toxicity (primary rat microglia [4]; [9]): 1%
- inhibition at 10 µM [5, 19]: -10%

Compound: CN1C(=O)CC(C)(c2ccccc2)C1=O (stereo not shown) [Methsuximide]
- LPS % cell toxicity (primary rat microglia [1]; [20]): 0%
- inhibition at 10 µM [2, 21]: -39%
- Quadrant (FIG. 5b) [3, 8]: Q4
- Fibrin % cell toxicity (primary rat microglia [4]; [22]): 0%
- inhibition at 10 µM [5, 23]: 19%

Compound: CO/N=C(\C(=O)N[C@@H]1C(=O)N2C(C(=O)[O-])=C(C[N+]3(C)CCCC3)CS[C@H]12)c1csc(N)n1 [Cefepime]
- LPS % cell toxicity (primary rat microglia [1]; [10]): 0%
- inhibition at 10 µM [2, 11]: -26%
- Quadrant (FIG. 5b) ([3]; primary HTS, 10 μM): Q4
- Fibrin % cell toxicity (primary rat microglia [4]; [12]): 1%
- inhibition at 10 µM [5, 13]: 4%

Compound: CC[C@H]1CN2CC[C@H]1C[C@@H]2[C@@H](O)c1ccnc2ccc(OC)cc12 [Hydroquinidine]
- LPS % cell toxicity (primary rat microglia [1]; [6]): 0%
- inhibition at 10 µM [2, 7]: -8%
- Quadrant (FIG. 5b) [3, 8]: Q4
- Fibrin % cell toxicity (primary rat microglia [4]; [9]): 1%
- inhibition at 10 µM [5, 19]: 18%

Compound: CN1CCCN=C1COC(=O)C(O)(c1ccccc1)C1CCCCC1 (stereo not shown) [Oxyphencyclimine]
- LPS % cell toxicity (primary rat microglia [1]; [20]): 0%
- inhibition at 10 µM [2, 21]: 15%
- Quadrant (FIG. 5b) [3, 8]: Q4
- Fibrin % cell toxicity (primary rat microglia [4]; [22]): 1%
- inhibition at 10 µM [5, 23]: 11%

Compound: CC(C)(C)NCC(O)COc1cccc2c1CCC(=O)N2 (stereo not shown) [Carteolol]
- LPS % cell toxicity (primary rat microglia [1]; [10]): 0%
- inhibition at 10 µM [2, 11]: 12%
- Quadrant (FIG. 5b) ([3]; primary HTS, 10 μM): Q4
- Fibrin % cell toxicity (primary rat microglia [4]; [12]): 0%
- inhibition at 10 µM [5, 13]: 7%

— patent US20210330611A1, “THERAPY FOR NEUROLOGICAL DISEASES/DISORDERS” (priority 2020, published 2021)
